The record followed here is patent US12110283B2, “Carbonic anhydrase targeting agents and methods of using same” (VisEn Medical, Inc., priority 2011, dated 2024).

The target in data set [1] is CA II (Homo sapiens, UniProt P00918). The data set can be described thus: Ki by stopped flow CO2 hydration assay, CA II. The format is biochemical. Conditions: rate of CO2 hydration, stopped flow method. As for the experimental part: (§1) In this experiment, Ki values were determined by measuring the rate of CO2 hydration of the CA spectrophotometrically by a stopped flow method in the presence of varying concentrations of the CA agents.

The target of data set [2] is T1, CA IX (Homo sapiens, UniProt Q16790).
T1 construct: confirming upregulation and expression of CA IX in these cells; endogenous in cells; host or cells: HeLa cells, hypoxic (1% O2) or normoxic
Put plainly: Ki by stopped flow CO2 hydration assay, CA IX. The format is biochemical. The settings on record: for Ki: rate of CO2 hydration, stopped flow method. The procedure:
as §1

Data set [3] addresses CA XII (Homo sapiens, UniProt O43570). Put plainly: Ki by stopped flow CO2 hydration assay, CA XII. The format is biochemical. Conditions: rate of CO2 hydration, stopped flow method. The procedure:
as §1

Data set [4] has as its target CA XIV (Homo sapiens, UniProt Q9ULX7). The data set can be described thus: Ki by stopped flow CO2 hydration assay, CA XIV. The format is biochemical. Conditions: rate of CO2 hydration, stopped flow method. The procedure:
as §1

In data set [5] the target is T1, CA IX. Put plainly: Carbonic anhydrase dependent binding of CA agents to HeLa cells (fluorescence microscopy, flow cytometry). The format is cell-based. Conditions: for binding to hypoxic HeLa cells, flow cytometry (FIG. 3) / binding to hypoxic and normoxic HeLa cells, fluorescence microscopy (FIG. 2): HeLa cells 24 h in air or 1% O2, agents 1 μM, 30 min; for binding to hypoxic HeLa cells after excess acetazolamide, fluorescence microscopy (FIG. 2) / signal on hypoxic HeLa cells with acetazolamide, flow cytometry (FIG. 3): acetazolamide 100 μM for 2 hour before the agent. As for the experimental part: Cell binding assays using HeLa cells cultured under […] were performed. Hela cells (28,000 cells/cm^2) were cultured in 6 well culture plates for 24 h under normoxic (air) or hypoxic (1% O2) conditions. Incubation with a fluorescent anti CA IX Ab (R&D systems) was performed in one well as a positive control followed by incubation for 1 h at 37° C. Carbonic anhydrase agents A5 and A3 (1 μM) or nonbinding control agent D3 were added to individual wells followed by incubation for 30 min. Cells were rinsed three times with PBS then scraped with 2 mL, transferred to 5 mL tubes and then spun for 10 min at 1000 rpm to discard the PBS. The cells were then re-suspend the cells in 400 μL PBS and analyzed by fluorescence microscopy and flow cytometry. For fluorescence microscopy, nuclei were co-stained with DAPI. For the competition study, cells were incubated with acetazolamide (Az) (100 μM) for 2 hour before incubation with agents.
In general terms: A flow cytometer gives signals particle by particle.

Data set [6] has as its system HeLa tumors. The data set can be described thus: Imaging of tumors in vivo using CA agents (planar reflectance and FMT). The settings on record: NU/NU mice, bilateral HeLa tumors, 2 nmoles i.v., 24 hrs post-injection. The procedure: In this experiment, NU/NU mice 6-8 weeks old (Charles River Laboratory, Wilmington, MA) were injected subcutaneously (s.c.) with about 2×10^6 HeLa cells bilaterally in each mammary fat pad. When tumors reached an approximate size of 3×3 mm, mice were injected intravenously (i.v.) with 2 nmoles of carbonic anhydrase agent C5 or nonbinding control agent D3 (5 mice/probe+2 mice/no probe as control) in 100 μL volume via tail vein. Imaging was conducted at 24 hrs post-injection using a Fluorescence Molecular Tomography system (VisEn Medical, Bedford, MA) that is commercially available.

Data set [7] is described as follows: Biodistribution of i.v. administered compound in HeLa tumor bearing mice. Conditions: 2 nmoles i.v., 24 hr, excised tissues, reflectance mode. The format is in vivo. As for the experimental part: Female NU/NU mice 6-8 weeks old (Charles River Laboratory, Wilmington, MA) were injected subcutaneously (s.c.) with HeLa cells (5×10^6) in the first mammary fat pads. Once tumors reached the desired volume (measured with calipers using the formula volume mm^3=(length×width^2)/2), mice were injected i.v. with compound C5 (2 nmoles) or nonbinding control D3. Mice were sacrificed by carbon dioxide asphyxiation 24 hr later and certain tissues removed, rinsed with saline, blotted dry, and the imaged on a VisEn FMT 2500 using the reflectance mode. Regions of interest (ROIs) were drawn around each organ using the FMT Software and the mean fluorescence (reported as counts/energy) determined for each organ and normalized to the mean fluorescence in tumors taken to be 100%.

Data set [8] concerns HeLa tumors. Put plainly: Effect of acetazolamide treatment on carbonic anhydrase signal in HeLa tumor-bearing mice (FMT). The settings on record: for accumulation in tumors as quantified by FMT (FIG. 5B): 24 hours. The format is in vivo. The procedure:
HeLa tumor-bearing mice were randomized once their tumors reached the desired volume and injected i.v. with either C5 (2 nmoles). For competition studies, mice were injected with the acetazolamide (10 mg/kg) followed 60 minutes later by compound C5 (2 nmoles). Imaging was performed 24 hours after administration of the agents using the FMT 2500.

Data set [9] deals with HeLa tumors. The data set can be described thus: Detection of in vivo induction of hypoxia in mice with HeLa tumors (FRI of excised tumors). The settings on record: 2 nmol i.v., tumors excised and imaged by FRI 24 hours after injection. As for the experimental part:
Female nu/nu mice at 4-5 weeks old, obtained from (Harlan Laboratory, Indianapolis, IN) were injected subcutaneously (s.c.) with HeLa cells (1.5×10^6 cells/site) in the mammary fat pads. Once tumors reached the desired volume of 600-700 mm^3 (measured with calipers using the formula volume mm^3=length×width^2/2), mice were grouped randomly (n=4-5 mice/group) for with some exposed to controlled hypoxic environmental conditions (8% oxygen) in a chamber with monitored oxygen levels. Control mice with matched tumor volumes were maintained under normal housing conditions. C5, (2 nmol) was injected intravenously to all mice at 24 hours after the initiation of the experiment. Hypoxic mice were placed back into the hypoxic chamber after the injection, and tumors were excised and imaged by fluorescence reflectance imaging (FRI) 24 hours following injection. FIGS. 6A-B show fluorescence images of the excised tumors from mice that were placed in normal air (left) and 8% 02 (right).

Sequence of CA XIV (Q9ULX7 16-337, species assumed): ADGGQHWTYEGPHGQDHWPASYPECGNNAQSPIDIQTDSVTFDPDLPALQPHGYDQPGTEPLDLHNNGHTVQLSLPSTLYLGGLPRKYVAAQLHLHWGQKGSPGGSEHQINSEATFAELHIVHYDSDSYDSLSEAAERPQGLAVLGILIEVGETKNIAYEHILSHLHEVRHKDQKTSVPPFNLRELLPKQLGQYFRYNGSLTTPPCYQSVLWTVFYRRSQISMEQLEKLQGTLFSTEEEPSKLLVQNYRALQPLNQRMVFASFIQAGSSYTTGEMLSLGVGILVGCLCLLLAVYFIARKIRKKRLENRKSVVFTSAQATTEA
Sequence of CA XII (O43570 25-354, species assumed): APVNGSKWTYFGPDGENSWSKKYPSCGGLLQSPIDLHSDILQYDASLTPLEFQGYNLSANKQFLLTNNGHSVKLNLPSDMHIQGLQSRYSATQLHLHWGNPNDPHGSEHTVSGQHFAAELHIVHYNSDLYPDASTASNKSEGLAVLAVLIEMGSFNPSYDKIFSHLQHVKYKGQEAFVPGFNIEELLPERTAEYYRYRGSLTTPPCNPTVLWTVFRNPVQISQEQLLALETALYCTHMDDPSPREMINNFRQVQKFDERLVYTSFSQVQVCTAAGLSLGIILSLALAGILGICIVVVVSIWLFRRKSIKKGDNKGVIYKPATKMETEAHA

What is called Ki is a measure of affinity in units of concentration, obtained from inhibition or displacement. As to `CC1(C)C(/C=C/C(=C/C=C2/N(CCCS(=O)(=O)O)c3ccc4c(S(=O)(=O)O)cc(S(=O)(=O)O)cc4c3C2(C)C)c2ccc(C(=O)NCCCCCC(=O)NCc3ccc(C(=O)Nc4nnc(S(N)(=O)=O)s4)cc3)cn2)=[N+](CCCS(=O)(=O)[O-])c2ccc3c(S(=O)(=O)O)cc(S(=O)(=O)O)cc3c21` [Compound A3, 3-(2-((1E,3Z,5E)-5-(1,1-dimethyl-6,8-disulfo-3-(3-sulfopropyl)-1H-benzo[e]indol-2(3H)-ylidene)-3-(5-((6-oxo-6-((4-((5-sulfamoyl-1,3,4-thiadiazol-2-yl)carbamoyl)benzyl)amino)hexyl)carbamoyl)pyridin-2-yl)penta-1,3-dien-1-yl)-1,1-dimethyl-6,8-disulfo-1H-benzo[e]indol-3-ium-3-yl)propane-1-sulfonate], the Ki in [1] was 9.8 nM. Affinity in data set [2] was put at a Ki of 7.6 nM. Further, the affinity in [3] corresponds to a Ki of 36 nM. The compound also displayed a Ki in [4] of 57 nM. For the same compound, in [5], the “binding to hypoxic HeLa cells, flow cytometry (FIG. 3)” value (“binding … (FIG. 3)” for short) is “increased binding”; the “binding to hypoxic and normoxic HeLa cells, fluorescence microscopy (FIG. 2)” value was “bound to CA IX receptors on the surface of the hypoxic cells but not normoxic cells”; the “binding to hypoxic HeLa cells after excess acetazolamide, fluorescence microscopy (FIG. 2)” value is “binding can be blocked”; the “signal on hypoxic HeLa cells with acetazolamide, flow cytometry (FIG. 3)” value is reported as “blocking of the signal”.
In the case of `CC1(C)C(/C=C/C(=C/C=C2/N(CCCS(=O)(=O)O)c3ccc4c(S(=O)(=O)O)cc(S(=O)(=O)O)cc4c3C2(C)C)c2ccc(C(=O)NCc3ccc(C(=O)Nc4nnc(S(N)(=O)=O)s4)cc3)cn2)=[N+](CCCS(=O)(=O)[O-])c2ccc3c(S(=O)(=O)O)cc(S(=O)(=O)O)cc3c21` [Compound A5, 3-(2-((1E,3Z,5E)-5-(1,1-dimethyl-6,8-disulfo-3-(3-sulfopropyl)-1H-benzo[e]indol-2(3H)-ylidene)-3-(5-((4-((5-sulfamoyl-1,3,4-thiadiazol-2-yl)carbamoyl)benzyl)carbamoyl)pyridin-2-yl)penta-1,3-dien-1-yl)-1,1-dimethyl-6,8-disulfo-1H-benzo[e]indol-3-ium-3-yl)propane-1-sulfonate], in data set [1], the affinity corresponds to a Ki of 271 nM. The Ki in [2] turned out to be 7.9 nM. In data set [3], this compound came in with a Ki of 43 nM. This compound also gave a Ki in data set [4] of 45 nM. Besides, in [5], the “binding … (FIG. 3)” value was “increased binding”; the “binding to hypoxic and normoxic HeLa cells, fluorescence microscopy (FIG. 2)” value was “bound to CA IX receptors on the surface of the hypoxic cells but not normoxic cells”; the “binding to hypoxic HeLa cells after excess acetazolamide, fluorescence microscopy (FIG. 2)” value was “binding can be blocked”; the “signal on hypoxic HeLa cells with acetazolamide, flow cytometry (FIG. 3)” value is listed as “blocking of the signal”.
Turning to `CC1(C)C(/C=C/C(=C/C=C2/N(CCCS(=O)(=O)O)c3ccc4c(S(=O)(=O)O)cc(S(=O)(=O)O)cc4c3C2(C)C)c2ccc(C(=O)NCCC(=O)Nc3nnc(S(N)(=O)=O)s3)cn2)=[N+](CCCS(=O)(=O)[O-])c2ccc3c(S(=O)(=O)O)cc(S(=O)(=O)O)cc3c21` [Compound C5, 3-(2-((1E,3Z,5E)-5-(1,1-dimethyl-6,8-disulfo-3-(3-sulfopropyl)-1H-benzo[e]indol-2(3H)-ylidene)-3-(5-((3-oxo-3-((5-sulfamoyl-1,3,4-thiadiazol-2-yl)amino)propyl)carbamoyl)pyridin-2-yl)penta-1,3-dien-1-yl)-1,1-dimethyl-6,8-disulfo-1H-benzo[e]indol-3-ium-3-yl)propane-1-sulfonate], the “tumor signal by planar reflectance and tomographic imaging” value in [6] is reported as “tumors can be imaged effectively”. Also, the “tissue fluorescence (biodistribution), normalized to tumors (FIG. 4)” value in data set [7] was “very low in most tissues with the high concentrations found in tumors, and lower concentrations accumulated in the kidneys”. The “accumulation in tumors as quantified by FMT (FIG. 5B)” value in data set [8] (2 nmoles i.v., no acetazolamide) is recorded as 116 pmol; in [8] (acetazolamide 10 mg/kg 60 minutes before agent (2 nmoles i.v.)), 39 pmol. Moreover, the “tumor signal in tomographic images after acetazolamide compared to untreated animals (FIG. 5A)” value in data set [8] (acetazolamide 10 mg/kg 60 minutes before agent (2 nmoles i.v.), imaging at 24 hours) is on record as “reduced signal”. Moreover, in [8] (acetazolamide 10 mg/kg 60 minutes before agent, versus untreated), the “less tumor signal in acetazolamide treated animals” value is recorded as “approximately 66%”. Moreover, the “uptake in excised tumors, hypoxic atmosphere (8% oxygen) versus normal air (FIGS. 6A-B)” value in [9] is recorded as “significantly greater uptake”.
Regarding `CC1(C)C(/C=C/C(=C/C=C2/N(CCCS(=O)(=O)O)c3ccc4c(S(=O)(=O)O)cc(S(=O)(=O)O)cc4c3C2(C)C)c2ccc(C(=O)NCCCCCC(=O)NCc3ccccc3)cn2)=[N+](CCCS(=O)(=O)[O-])c2ccc3c(S(=O)(=O)O)cc(S(=O)(=O)O)cc3c21` [Compound D3, 3-(2-((1E,3Z,5E)-3-(5-((6-(benzylamino)-6-oxohexyl)carbamoyl)pyridin-2-yl)-5-(1,1-dimethyl-6,8-disulfo-3-(3-sulfopropyl)-1H-benzo[e]indol-2(3H)-ylidene)penta-1,3-dien-1-yl)-1,1-dimethyl-6,8-disulfo-1H-benzo[e]indol-3-ium-3-yl)propane-1-sulfonate], the Ki in [1], in data set [2], in [3] and in data set [4] was more than 100000 nM each time. Besides, the “specific binding to carbonic anhydrases” value in [2] (summary in words of Table 5: CA II, CA IX, CA XII, CA XIV) was “no specific binding is detected”. For the same compound, in [6], the “tumor signal by planar reflectance and tomographic imaging” value is reported as “little or no tumor signal”. Besides, the “binding … (FIG. 3)” value in [5] was “not”. In data set [5], the “binding to hypoxic and normoxic HeLa cells, fluorescence microscopy (FIG. 2)” value was “doesn't bind to either normoxic or hypoxic cells”. The “tissue fluorescence (biodistribution), normalized to tumors (FIG. 4)” value in data set [7] is listed as “fluorescence accumulation only in the kidneys”.
